For assay [1], the target named is T1, IDO1 (Homo sapiens, UniProt P14902).
T1 construct: host or cells: HeLa cells, IDO1 induced with 100 ng/ml human IFN-γ
In words: Hela cell-based IDO1 functional assay (kynurenine readout, IFN-γ induced). The following applies: Hela cells, 100 ng/ml human IFN-γ, 18 h; Table 1 and text. The protocol:
To perform the Hela cell based IDO1 assay, Hela cells were seeded at 50,000 cells per well into 96-well microplate in 100 μl of DMEM 10% fetal bovine serum 1% Penicillin-Streptomycin. Cells were incubated at 37°C and 5% CO2 overnight.
The next day 100 μl per well of diluted inhibitor in growth medium was added at a final concentration of 100 ng/ml human IFN-γ. Cells were incubated at 37°C in a CO2 incubator for 18 h. The next day 140 μl of medium was moved into a new 96-well plate and 20 μl of 3.05 N trichloroacetic acid (TCA) was added. The plate was incubated at 50°C for 30 min to hydrolyze N-formylkynurenine. The plate was then centrifuged at 2,500 rpm for 10 min to remove sediments. 100 μl of supernatant per well was transferred to another 96-well plate and mixed with 100 μl of 2% (w/v) 4-(Dimethylamino)benzaldehyde in acetic acid. The plate was incubated at room temperature for 10 min, the yellow color derived from kynurenine was recorded by measuring absorbance at 480 nm using a microplate reader (PerkinElmer, USA).
To investigate the IDO1 inhibition activities of the synthesized derivatives, all the new compounds and icotinib were screened via Hela cell-based functional assay using methods described in the literature ([Yue et al., 2009]; [Malachowski et al., 2016]; [Qian et al., 2016]).

Assay [2] concerns Human renal epithelial cell (293T). Kind of assay: Cytotoxicity assay, Cell Counting Kit-8 (CCK8), 72 h. The class given is cell-based. The following applies: HEK-293T, 293T cells, CCK-8, 72 h. Here is the method: Cytotoxity of the chosen compounds was evaluated by the Cell Counting Kit-8 (CCK8, DOJINDO, Japan) assay. The cells were seeded at a density of 2,000 cells per well into 96-well microplate in 100 μl of growth medium. Cells were incubated at 37°C and 5% CO2 overnight. The next day, 100 μl per well of diluted inhibitor in growth medium was added with the final concentration from 0.1nM to 100 μM. The cells were treated with DMSO as control. A series of dilutions were made in 0.1% DMSO in assay medium so that the final concentration of DMSO was 0.1% in all the treatments. Cells were incubated at 37°C and 5% CO2 for 72 h. Then, 10 μl of CCK8 was added to each well. The plates were incubated at 37°C for 2 h, and the plates were recorded by measuring the absorbance at 450 nm with the reference wavelength of 630 nm using an EnVisionMultilabel Reader (PerkinElmer). The IC50 values were calculated and determined by the concentration causing a half-maximal percent activity. All assays were conducted with three parallel samples and three repetitions.
Next, several compounds with submicromolar level of IDO1 inhibitory activities were chosen for further study. Human renal epithelial cell (293T) was chosen for CCK-8 assay to evaluation the bioactivity of these compounds.

T1 sequence (P14902 whole entry): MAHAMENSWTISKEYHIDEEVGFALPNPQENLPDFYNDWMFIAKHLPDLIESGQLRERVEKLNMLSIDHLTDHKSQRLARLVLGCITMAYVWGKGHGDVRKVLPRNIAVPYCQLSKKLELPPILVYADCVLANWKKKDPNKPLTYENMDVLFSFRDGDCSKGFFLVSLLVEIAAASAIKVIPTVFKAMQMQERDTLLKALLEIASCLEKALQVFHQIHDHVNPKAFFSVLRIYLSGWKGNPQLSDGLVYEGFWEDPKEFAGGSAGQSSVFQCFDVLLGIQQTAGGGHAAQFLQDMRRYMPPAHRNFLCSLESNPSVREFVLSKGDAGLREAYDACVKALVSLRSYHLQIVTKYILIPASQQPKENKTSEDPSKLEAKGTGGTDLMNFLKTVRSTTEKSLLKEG

A word on the IC50: it is the concentration at which inhibition is half-maximal. High values mean weaker potency in that assay, low ones greater potency in that assay. Take `FC(F)(F)c1ccc(-n2cc(-c3cccc(Nc4ncnc5cc6c(cc45)OCCOCCOCCO6)c3)nn2)cc1` [a12, (7,8,10,11,13,14-Hexahydro-6,9,12,15-tetraoxa-1,3-diaza-cyclododeca[b]naphthalen-4-yl)-{3-[1-(4-trifluoromethyl-phenyl)-1H-[1,2,3]triazol-4-yl]-phenyl}-amine]: the 50% inhibitory concentration (IC50) in assay [1] was more than 100 µM.

As to `Ic1ccccc1Cn1cc(-c2cccc(Nc3ncnc4cc5c(cc34)OCCOCCOCCO5)c2)nn1` [a16, (7,8,10,11,13,14-Hexahydro-6,9,12,15-tetraoxa-1,3-diaza-cyclododeca[b]naphthalen-4-yl)-{3-[1-(2-iodo-benzyl)-1H-[1,2,3]triazol-4-yl]-phenyl}-amine], in assay [1], 1.51 ± 0.11 µM corresponded to half-maximal inhibition (IC50). Consider `c1ccc(-n2cc(-c3cccc(Nc4ncnc5cc6c(cc45)OCCOCCOCCO6)c3)nn2)cc1` [a6, (7,8,10,11,13,14-Hexahydro-6,9,12,15-tetraoxa-1,3-diaza-cyclododeca[b]naphthalen-4-yl)-[3-(1-phenyl-1H-[1,2,3]triazol-4-yl)-phenyl]-amine], for which the values for the IC50 in assay [2] and in assay [1] were 42.8 ± 11.8 µM and 0.77 ± 0.13 µM, respectively. For `COc1cccc(Cn2cc(-c3cccc(Nc4ncnc5cc6c(cc45)OCCOCCOCCO6)c3)nn2)c1` [a20, (7,8,10,11,13,14-Hexahydro-6,9,12,15-tetraoxa-1,3-diaza-cyclododeca[b]naphthalen-4-yl)-{3-[1-(3-methoxy-benzyl)-1H-[1,2,3]triazol-4-yl]-phenyl}-amine], in that order: 3.3 ± 1.3 µM and 0.76 ± 0.07 µM. The compound `Clc1ccccc1-n1cc(-c2cccc(Nc3ncnc4cc5c(cc34)OCCOCCOCCO5)c2)nn1` [a5, {3-[1-(2-Chloro-phenyl)-1H-[1,2,3]triazol-4-yl]-phenyl}-(7,8,10,11,13,14-hexahydro-6,9,12,15-tetraoxa-1,3-diaza-cyclododeca[b]naphthalen-4-yl)-amine] yielded an IC50 in assay [1] of 4.88 ± 0.42 µM. In assay [1], `COc1ccccc1-n1cc(-c2cccc(Nc3ncnc4cc5c(cc34)OCCOCCOCCO5)c2)nn1` [a4, (7,8,10,11,13,14-Hexahydro-6,9,12,15-tetraoxa-1,3-diaza-cyclododeca[b]naphthalen-4-yl)-{3-[1-(2-methoxy-phenyl)-1H-[1,2,3]triazol-4-yl]-phenyl}-amine] gave a half-maximal inhibitory concentration (IC50) of 1.32 ± 0.17 µM. Consider `Cc1ccc(Cn2cc(-c3cccc(Nc4ncnc5cc6c(cc45)OCCOCCOCCO6)c3)nn2)cc1` [a15, (7,8,10,11,13,14-Hexahydro-6,9,12,15-tetraoxa-1,3-diaza-cyclododeca[b]naphthalen-4-yl)-{3-[1-(4-methyl-benzyl)-1H-[1,2,3]triazol-4-yl]-phenyl}-amine], for which the IC50 in assay [2] came out at 0.16 ± 0.05 µM; in assay [1], 0.59 ± 0.05 µM. For `Clc1cccc(-n2cc(-c3cccc(Nc4ncnc5cc6c(cc45)OCCOCCOCCO6)c3)nn2)c1` [a7, {3-[1-(3-Chloro-phenyl)-1H-[1,2,3]triazol-4-yl]-phenyl}-(7,8,10,11,13,14-hexahydro-6,9,12,15-tetraoxa-1,3-diaza-cyclododeca[b]naphthalen-4-yl)-amine], in that order: 3.1 ± 0.2 µM and 2.82 ± 0.26 µM. On to `Fc1cccc(-n2cc(-c3cccc(Nc4ncnc5cc6c(cc45)OCCOCCOCCO6)c3)nn2)c1` [a1, {3-[1-(3-Fluoro-phenyl)-1H-[1,2,3]triazol-4-yl]-phenyl}-(7,8,10,11,13,14-hexahydro-6,9,12,15-tetraoxa-1,3-diaza-cyclododeca[b]naphthalen-4-yl)-amine], for which the IC50 in assay [1] worked out at 4.25 ± 0.08 µM. Consider `Cc1ccccc1Cn1cc(-c2cccc(Nc3ncnc4cc5c(cc34)OCCOCCOCCO5)c2)nn1` [a14, (7,8,10,11,13,14-Hexahydro-6,9,12,15-tetraoxa-1,3-diaza-cyclododeca[b]naphthalen-4-yl)-{3-[1-(2-methyl-benzyl)-1H-[1,2,3]triazol-4-yl]-phenyl}-amine], for which the results for the 50% inhibitory concentration (IC50) in assay [2] and in assay [1] were 3.35 ± 0.89 µM and 0.79 ± 0.21 µM, respectively. `Clc1ccc(-n2cc(-c3cccc(Nc4ncnc5cc6c(cc45)OCCOCCOCCO6)c3)nn2)cc1` [a2, {3-[1-(4-Chloro-phenyl)-1H-[1,2,3]triazol-4-yl]-phenyl}-(7,8,10,11,13,14-hexahydro-6,9,12,15-tetraoxa-1,3-diaza-cyclododeca[b]naphthalen-4-yl)-amine] registered a 50% inhibitory concentration (IC50) in assay [1] of 2.9 ± 0.37 µM. In assay [1], `Fc1ccc(-n2cc(-c3cccc(Nc4ncnc5cc6c(cc45)OCCOCCOCCO6)c3)nn2)cc1` [a3, {3-[1-(4-Fluoro-phenyl)-1H-[1,2,3]triazol-4-yl]-phenyl}-(7,8,10,11,13,14-hexahydro-6,9,12,15-tetraoxa-1,3-diaza-cyclododeca[b]naphthalen-4-yl)-amine] displayed an IC50 of 18.2 ± 1.47 µM. As to `COc1cccc(-n2cc(-c3cccc(Nc4ncnc5cc6c(cc45)OCCOCCOCCO6)c3)nn2)c1` [a9, (7,8,10,11,13,14-Hexahydro-6,9,12,15-tetraoxa-1,3-diaza-cyclododeca[b]naphthalen-4-yl)-{3-[1-(3-methoxy-phenyl)-1H-[1,2,3]triazol-4-yl]-phenyl}-amine], the IC50 in assay [1] was determined as 1.41 ± 0.08 µM. `Ic1ccccc1-n1cc(-c2cccc(Nc3ncnc4cc5c(cc34)OCCOCCOCCO5)c2)nn1` [a8, (7,8,10,11,13,14-Hexahydro-6,9,12,15-tetraoxa-1,3-diaza-cyclododeca[b]naphthalen-4-yl)-{3-[1-(2-iodo-phenyl)-1H-[1,2,3]triazol-4-yl]-phenyl}-amine] registered an IC50 in assay [1] of 2.5 ± 0.43 µM.

As for `Fc1ccc(CCn2cc(-c3cccc(Nc4ncnc5cc6c(cc45)OCCOCCOCCO6)c3)nn2)cc1` [a22, (3-{1-[2-(4-Fluoro-phenyl)-ethyl]-1H-[1,2,3]triazol-4-yl}-phenyl)-(7,8,10,11,13,14-hexahydro-6,9,12,15-tetraoxa-1,3-diaza-cyclododeca[b]naphthalen-4-yl)-amine], the results for the half-maximal inhibitory concentration (IC50) in assay [2] and in assay [1] were 2.6 ± 0.17 µM and 0.81 ± 0.35 µM, respectively. On to `Brc1ccccc1-n1cc(-c2cccc(Nc3ncnc4cc5c(cc34)OCCOCCOCCO5)c2)nn1` [a11, {3-[1-(2-Bromo-phenyl)-1H-[1,2,3]triazol-4-yl]-phenyl}-(7,8,10,11,13,14-hexahydro-6,9,12,15-tetraoxa-1,3-diaza-cyclododeca[b]naphthalen-4-yl)-amine], for which the IC50 in assay [1] was 1 ± 0.49 µM.

Compound `Brc1ccccc1Cn1cc(-c2cccc(Nc3ncnc4cc5c(cc34)OCCOCCOCCO5)c2)nn1` [a19, {3-[1-(2-Bromo-benzyl)-1H-[1,2,3]triazol-4-yl]-phenyl}-(7,8,10,11,13,14-hexahydro-6,9,12,15-tetraoxa-1,3-diaza-cyclododeca[b]naphthalen-4-yl)-amine] yielded an IC50 in assay [1] of 1.5 ± 0.45 µM. For the compound `Brc1cc(Br)cc(Cn2cc(-c3cccc(Nc4ncnc5cc6c(cc45)OCCOCCOCCO6)c3)nn2)c1` [a21, {3-[1-(3,5-Dibromo-benzyl)-1H-[1,2,3]triazol-4-yl]-phenyl}-(7,8,10,11,13,14-hexahydro-6,9,12,15-tetraoxa-1,3-diaza-cyclododeca[b]naphthalen-4-yl)-amine], the IC50 in assay [2] was found to be 0.74 ± 0.15 µM; in assay [1], 0.68 ± 0.44 µM.

On to `c1ccc(Cn2cc(-c3cccc(Nc4ncnc5cc6c(cc45)OCCOCCOCCO6)c3)nn2)cc1` [a18, [3-(1-Benzyl-1H-[1,2,3]triazol-4-yl)-phenyl]-(7,8,10,11,13,14-hexahydro-6,9,12,15-tetraoxa-1,3-diaza-cyclododeca[b]naphthalen-4-yl)-amine], for which the half-inhibitory concentration (IC50) in assay [2] amounted to 3.08 ± 0.59 µM; in assay [1], 0.56 ± 0.16 µM. In turn, `Brc1ccc(-n2cc(-c3cccc(Nc4ncnc5cc6c(cc45)OCCOCCOCCO6)c3)nn2)cc1` [a10, {3-[1-(4-Bromo-phenyl)-1H-[1,2,3]triazol-4-yl]-phenyl}-(7,8,10,11,13,14-hexahydro-6,9,12,15-tetraoxa-1,3-diaza-cyclododeca[b]naphthalen-4-yl)-amine] showed an IC50 in assay [1] of 2.79 ± 0.46 µM. As to `Fc1ccccc1Cn1cc(-c2cccc(Nc3ncnc4cc5c(cc34)OCCOCCOCCO5)c2)nn1` [a13, {3-[1-(2-Fluoro-benzyl)-1H-[1,2,3]triazol-4-yl]-phenyl}-(7,8,10,11,13,14-hexahydro-6,9,12,15-tetraoxa-1,3-diaza-cyclododeca[b]naphthalen-4-yl)-amine], half-maximal inhibition in assay [1] (IC50) required 4.62 ± 0.19 µM. This IC50 is about 1.7-fold higher than that of the compound before. On the same count and under the same terms, with `C#Cc1cccc(Nc2ncnc3cc4c(cc23)OCCOCCOCCO4)c1` [icotinib] the figure was 2.57 ± 0.44 µM.
